According to ChEMBL document CHEMBL4507279, “Data for DCP probe BI-9627” (2021):

Assays:
[1] = molecular target: BDNF/NT-3 growth factors receptor (Homo sapiens) (UniProt Q16620); conditions: Compound concentration 1000.0 nM
[2] = molecular target: Serine/threonine-protein kinase Nek4 (Homo sapiens) (UniProt P51957); conditions: Compound concentration 1000.0 nM
[3] = test system: Hepatocyte growth factor receptor (Homo sapiens), P08581 [Y1235D]; conditions: Compound concentration 1000.0 nM
[4] = molecular target: MAP kinase-interacting serine/threonine-protein kinase 1 (Homo sapiens) (UniProt Q9BUB5); conditions: Compound concentration 1000.0 nM
[5] = molecular target: Serine/threonine-protein kinase ICK (Homo sapiens) (UniProt Q9UPZ9); conditions: Compound concentration 1000.0 nM
[6] = molecular target: Calcium/calmodulin-dependent protein kinase type 1D (Homo sapiens) (UniProt Q8IU85); conditions: Compound concentration 1000.0 nM
[7] = molecular target: Serine/threonine-protein kinase TAO1 (Homo sapiens) (UniProt Q7L7X3); conditions: Compound concentration 1000.0 nM
[8] = molecular target: 1-phosphatidylinositol 3-phosphate 5-kinase (Homo sapiens) (UniProt Q9Y2I7); conditions: Compound concentration 1000.0 nM
[9] = molecular target: 5-hydroxytryptamine receptor 6 (Homo sapiens) (UniProt P50406); conditions: Compound concentration 10.0 uM
[10] = molecular target: Testis-specific serine/threonine-protein kinase 1 (Homo sapiens) (UniProt Q9BXA7); conditions: Compound concentration 1000.0 nM
[11] = molecular target: Tyrosine-protein kinase Yes (Homo sapiens) (UniProt P07947); conditions: Compound concentration 1000.0 nM
[12] = molecular target: Serine/threonine-protein kinase Nek7 (Homo sapiens) (UniProt Q8TDX7); conditions: Compound concentration 1000.0 nM
[13] = molecular target: RAC-gamma serine/threonine-protein kinase (Homo sapiens) (UniProt Q9Y243); conditions: Compound concentration 1000.0 nM
[14] = molecular target: 5-hydroxytryptamine receptor 7 (Homo sapiens) (UniProt P34969); conditions: Compound concentration 10.0 uM
[15] = molecular target: STE20-like serine/threonine-protein kinase (Homo sapiens) (UniProt Q9H2G2); conditions: Compound concentration 1000.0 nM
[16] = molecular target: Tyrosine-protein kinase JAK3 (Homo sapiens) (UniProt P52333); conditions: Compound concentration 1000.0 nM
[17] = molecular target: Serine/threonine-protein kinase NLK (Homo sapiens) (UniProt Q9UBE8); conditions: Compound concentration 1000.0 nM
[18] = molecular target: Mitogen-activated protein kinase 1 (Homo sapiens) (UniProt P28482); conditions: Compound concentration 1000.0 nM
[19] = molecular target: Homeodomain-interacting protein kinase 2 (Homo sapiens) (UniProt Q9H2X6); conditions: Compound concentration 1000.0 nM
[20] = molecular target: Casein kinase II subunit alpha (Homo sapiens) (UniProt P68400); conditions: Compound concentration 1000.0 nM
[21] = molecular target: Tyrosine-protein kinase JAK1 (Homo sapiens) (UniProt P23458); conditions: Compound concentration 1000.0 nM
[22] = molecular target: Angiopoietin-1 receptor (Homo sapiens) (UniProt Q02763); conditions: Compound concentration 1000.0 nM
[23] = molecular target: Aurora kinase B (Homo sapiens) (UniProt Q96GD4); conditions: Compound concentration 1000.0 nM
[24] = molecular target: Cyclin-dependent kinase 2 homolog (Plasmodium falciparum (isolate 3D7)) (UniProt P61075); conditions: Compound concentration 1000.0 nM
[25] = molecular target: Dual specificity mitogen-activated protein kinase kinase 6 (Homo sapiens) (UniProt P52564); conditions: Compound concentration 1000.0 nM
[26] = molecular target: Mitogen-activated protein kinase 4 (Homo sapiens) (UniProt P31152); conditions: Compound concentration 1000.0 nM
[27] = molecular target: Mitogen-activated protein kinase kinase kinase kinase 4 (Homo sapiens) (UniProt O95819); conditions: Compound concentration 1000.0 nM
[28] = molecular target: Fibroblast growth factor receptor 3 (Homo sapiens) (UniProt P22607); conditions: Compound concentration 1000.0 nM
[29] = molecular target: Mitogen-activated protein kinase 12 (Homo sapiens) (UniProt P53778); conditions: Compound concentration 1000.0 nM
[30] = molecular target: Serine/threonine-protein kinase PLK3 (Homo sapiens) (UniProt Q9H4B4); conditions: Compound concentration 1000.0 nM
[31] = molecular target: T1, 5-hydroxytryptamine receptor 3A (Homo sapiens) (UniProt P46098); conditions: Compound concentration 10.0 uM
T1 sequence (whole entry): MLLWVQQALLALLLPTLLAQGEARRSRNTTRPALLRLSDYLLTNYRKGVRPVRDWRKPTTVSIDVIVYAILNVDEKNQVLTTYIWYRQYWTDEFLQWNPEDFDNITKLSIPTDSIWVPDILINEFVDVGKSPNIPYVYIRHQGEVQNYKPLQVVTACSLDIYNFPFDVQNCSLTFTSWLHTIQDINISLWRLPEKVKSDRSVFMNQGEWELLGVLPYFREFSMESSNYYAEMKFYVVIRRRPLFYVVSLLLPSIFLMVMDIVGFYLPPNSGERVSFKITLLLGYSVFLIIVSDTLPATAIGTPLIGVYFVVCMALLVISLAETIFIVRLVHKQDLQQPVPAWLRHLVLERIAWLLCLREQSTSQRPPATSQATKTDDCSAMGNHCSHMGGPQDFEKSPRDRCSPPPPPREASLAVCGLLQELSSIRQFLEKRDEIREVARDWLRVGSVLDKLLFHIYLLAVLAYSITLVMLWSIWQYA

[32] = molecular target: Tyrosine-protein kinase BTK (Homo sapiens) (UniProt Q06187); conditions: Compound concentration 1000.0 nM
[33] = molecular target: Mitogen-activated protein kinase 14 (Homo sapiens) (UniProt Q16539); conditions: Compound concentration 1000.0 nM
[34] = molecular target: Sodium/hydrogen exchanger 2 (Homo sapiens, UniProt Q9UBY0); experiment: pHi change assay with SLC9A2
[35] = molecular target: MAP kinase-activated protein kinase 2 (Homo sapiens) (UniProt P49137); conditions: Compound concentration 1000.0 nM
[36] = molecular target: Mitogen-activated protein kinase kinase kinase 6 (Homo sapiens) (UniProt O95382); conditions: Compound concentration 1000.0 nM
[37] = test system: Serine/threonine-protein kinase B-raf (Homo sapiens), P15056 [V600E]; conditions: Compound concentration 1000.0 nM
[38] = molecular target: BMP-2-inducible protein kinase (Homo sapiens) (UniProt Q9NSY1); conditions: Compound concentration 1000.0 nM
[39] = molecular target: Serine/threonine-protein kinase RIO1 (Homo sapiens) (UniProt Q9BRS2); conditions: Compound concentration 1000.0 nM

Mitogen-activated protein kinase 14 (Homo sapiens), sequence (Q16539 whole entry): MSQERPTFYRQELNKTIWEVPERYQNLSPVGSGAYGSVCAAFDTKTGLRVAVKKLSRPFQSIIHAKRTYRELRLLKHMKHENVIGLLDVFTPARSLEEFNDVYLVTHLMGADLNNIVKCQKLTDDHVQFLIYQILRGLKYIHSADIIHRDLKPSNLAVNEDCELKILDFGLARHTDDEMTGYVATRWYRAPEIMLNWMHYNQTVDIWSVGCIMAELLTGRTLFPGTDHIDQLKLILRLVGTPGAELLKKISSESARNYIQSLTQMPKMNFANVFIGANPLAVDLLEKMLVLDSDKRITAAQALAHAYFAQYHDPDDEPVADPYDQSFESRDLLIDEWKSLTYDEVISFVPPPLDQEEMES
Mitogen-activated protein kinase kinase kinase 6 (Homo sapiens), sequence (O95382 whole entry): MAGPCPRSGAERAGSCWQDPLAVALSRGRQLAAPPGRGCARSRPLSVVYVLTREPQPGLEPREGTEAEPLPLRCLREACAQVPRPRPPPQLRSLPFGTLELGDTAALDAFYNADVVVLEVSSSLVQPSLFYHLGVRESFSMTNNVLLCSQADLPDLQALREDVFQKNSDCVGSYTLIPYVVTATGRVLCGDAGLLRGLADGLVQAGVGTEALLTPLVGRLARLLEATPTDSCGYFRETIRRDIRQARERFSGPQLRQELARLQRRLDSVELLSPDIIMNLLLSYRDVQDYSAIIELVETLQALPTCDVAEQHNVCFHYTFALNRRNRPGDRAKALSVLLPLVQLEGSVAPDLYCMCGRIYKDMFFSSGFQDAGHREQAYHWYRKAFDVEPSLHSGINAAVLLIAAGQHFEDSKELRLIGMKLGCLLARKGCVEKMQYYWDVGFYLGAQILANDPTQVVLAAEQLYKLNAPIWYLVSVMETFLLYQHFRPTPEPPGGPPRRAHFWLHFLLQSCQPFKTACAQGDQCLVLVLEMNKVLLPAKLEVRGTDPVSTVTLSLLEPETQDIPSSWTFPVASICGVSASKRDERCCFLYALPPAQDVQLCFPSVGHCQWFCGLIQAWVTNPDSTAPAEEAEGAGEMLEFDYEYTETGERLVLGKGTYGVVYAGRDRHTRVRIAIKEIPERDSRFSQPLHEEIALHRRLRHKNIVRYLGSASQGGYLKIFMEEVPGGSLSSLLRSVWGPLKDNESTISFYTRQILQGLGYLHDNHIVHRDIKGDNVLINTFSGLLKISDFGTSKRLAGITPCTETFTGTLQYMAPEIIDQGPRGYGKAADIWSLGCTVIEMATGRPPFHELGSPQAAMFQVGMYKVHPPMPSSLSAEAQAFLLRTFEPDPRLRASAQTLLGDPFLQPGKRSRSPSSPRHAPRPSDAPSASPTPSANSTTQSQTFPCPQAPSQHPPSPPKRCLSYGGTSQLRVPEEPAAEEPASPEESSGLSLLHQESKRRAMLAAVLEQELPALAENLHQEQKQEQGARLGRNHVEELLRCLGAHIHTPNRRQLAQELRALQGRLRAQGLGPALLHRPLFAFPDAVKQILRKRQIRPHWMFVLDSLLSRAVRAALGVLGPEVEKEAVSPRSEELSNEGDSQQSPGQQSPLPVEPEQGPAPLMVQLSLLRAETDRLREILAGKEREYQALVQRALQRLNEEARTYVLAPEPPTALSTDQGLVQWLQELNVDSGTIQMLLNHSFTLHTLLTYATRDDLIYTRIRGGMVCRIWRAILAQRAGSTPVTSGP
Serine/threonine-protein kinase ICK (Homo sapiens), sequence (Q9UPZ9 whole entry): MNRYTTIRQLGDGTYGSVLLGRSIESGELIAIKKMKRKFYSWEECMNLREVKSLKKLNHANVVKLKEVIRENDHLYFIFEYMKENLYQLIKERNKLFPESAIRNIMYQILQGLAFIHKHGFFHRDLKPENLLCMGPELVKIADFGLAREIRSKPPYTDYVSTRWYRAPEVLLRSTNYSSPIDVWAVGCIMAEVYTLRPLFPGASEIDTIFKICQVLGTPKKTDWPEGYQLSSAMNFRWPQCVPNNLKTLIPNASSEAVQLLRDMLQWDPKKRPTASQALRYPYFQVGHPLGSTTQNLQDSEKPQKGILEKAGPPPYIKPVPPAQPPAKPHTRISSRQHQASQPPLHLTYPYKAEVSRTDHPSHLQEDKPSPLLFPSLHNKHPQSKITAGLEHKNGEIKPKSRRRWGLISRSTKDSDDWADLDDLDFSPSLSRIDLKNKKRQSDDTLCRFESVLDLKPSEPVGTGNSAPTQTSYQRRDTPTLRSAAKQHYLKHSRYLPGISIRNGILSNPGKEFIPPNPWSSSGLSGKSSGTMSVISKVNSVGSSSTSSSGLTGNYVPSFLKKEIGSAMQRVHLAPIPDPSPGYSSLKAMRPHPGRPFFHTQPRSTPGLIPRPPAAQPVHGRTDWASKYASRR
Mitogen-activated protein kinase 1 (Homo sapiens), sequence (P28482 whole entry): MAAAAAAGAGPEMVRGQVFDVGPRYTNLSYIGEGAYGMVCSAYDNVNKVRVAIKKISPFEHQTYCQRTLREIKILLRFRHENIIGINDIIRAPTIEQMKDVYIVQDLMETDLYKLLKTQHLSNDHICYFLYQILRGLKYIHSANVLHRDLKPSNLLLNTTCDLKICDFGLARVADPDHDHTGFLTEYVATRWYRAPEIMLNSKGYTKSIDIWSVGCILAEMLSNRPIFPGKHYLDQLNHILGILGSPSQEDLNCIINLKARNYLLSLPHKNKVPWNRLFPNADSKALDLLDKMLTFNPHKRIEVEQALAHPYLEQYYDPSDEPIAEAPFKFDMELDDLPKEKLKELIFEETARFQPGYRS
Mitogen-activated protein kinase 4 (Homo sapiens), sequence (P31152 whole entry): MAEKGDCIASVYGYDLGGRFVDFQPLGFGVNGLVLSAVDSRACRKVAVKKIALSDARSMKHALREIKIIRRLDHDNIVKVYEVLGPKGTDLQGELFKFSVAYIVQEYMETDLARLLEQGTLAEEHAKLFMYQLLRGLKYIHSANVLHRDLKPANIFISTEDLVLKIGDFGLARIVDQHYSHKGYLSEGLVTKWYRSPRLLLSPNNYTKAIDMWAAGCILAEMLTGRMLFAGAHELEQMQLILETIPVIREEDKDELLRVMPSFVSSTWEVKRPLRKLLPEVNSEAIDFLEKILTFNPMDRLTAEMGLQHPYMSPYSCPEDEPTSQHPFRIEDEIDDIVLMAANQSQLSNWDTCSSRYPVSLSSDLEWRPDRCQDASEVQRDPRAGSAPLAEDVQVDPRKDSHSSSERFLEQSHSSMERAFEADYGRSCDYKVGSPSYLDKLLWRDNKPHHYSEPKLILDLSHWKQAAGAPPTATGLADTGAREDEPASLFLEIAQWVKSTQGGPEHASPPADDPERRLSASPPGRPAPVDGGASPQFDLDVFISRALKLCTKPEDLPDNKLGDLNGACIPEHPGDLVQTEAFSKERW
Sodium/hydrogen exchanger 2, sequence (Q9UBY0 whole entry): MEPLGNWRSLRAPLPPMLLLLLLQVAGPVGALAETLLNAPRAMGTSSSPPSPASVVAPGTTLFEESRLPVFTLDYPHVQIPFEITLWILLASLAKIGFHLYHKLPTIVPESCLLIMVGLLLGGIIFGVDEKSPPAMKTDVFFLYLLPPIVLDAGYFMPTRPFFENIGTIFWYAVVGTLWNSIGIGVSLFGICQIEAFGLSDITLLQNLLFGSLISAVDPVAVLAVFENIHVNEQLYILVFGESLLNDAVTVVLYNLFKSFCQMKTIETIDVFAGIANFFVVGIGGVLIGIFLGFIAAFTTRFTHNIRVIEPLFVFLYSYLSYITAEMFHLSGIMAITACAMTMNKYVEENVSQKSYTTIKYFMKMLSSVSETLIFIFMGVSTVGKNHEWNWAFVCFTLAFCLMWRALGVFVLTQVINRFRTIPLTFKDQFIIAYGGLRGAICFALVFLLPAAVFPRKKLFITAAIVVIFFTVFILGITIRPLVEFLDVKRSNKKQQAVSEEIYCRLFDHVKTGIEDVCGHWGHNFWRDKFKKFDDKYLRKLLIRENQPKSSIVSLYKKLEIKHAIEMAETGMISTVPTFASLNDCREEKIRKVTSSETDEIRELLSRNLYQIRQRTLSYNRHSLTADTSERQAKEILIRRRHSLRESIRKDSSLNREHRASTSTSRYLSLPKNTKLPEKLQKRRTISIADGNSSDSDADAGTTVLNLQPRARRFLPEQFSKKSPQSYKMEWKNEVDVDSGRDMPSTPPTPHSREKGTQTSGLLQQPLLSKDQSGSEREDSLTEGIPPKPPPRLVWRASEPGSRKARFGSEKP
Testis-specific serine/threonine-protein kinase 1 (Homo sapiens), sequence (Q9BXA7 whole entry): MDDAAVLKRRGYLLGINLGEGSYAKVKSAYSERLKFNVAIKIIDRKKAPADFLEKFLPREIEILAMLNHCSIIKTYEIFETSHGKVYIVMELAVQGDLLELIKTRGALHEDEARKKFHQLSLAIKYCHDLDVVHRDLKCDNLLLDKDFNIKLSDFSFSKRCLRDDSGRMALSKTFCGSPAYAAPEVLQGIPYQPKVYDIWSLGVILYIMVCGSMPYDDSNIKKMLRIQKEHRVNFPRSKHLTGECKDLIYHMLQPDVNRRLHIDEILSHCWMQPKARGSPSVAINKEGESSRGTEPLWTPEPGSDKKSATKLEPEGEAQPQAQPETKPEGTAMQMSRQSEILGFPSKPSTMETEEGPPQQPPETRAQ
5-hydroxytryptamine receptor 6 (Homo sapiens), sequence (P50406 whole entry): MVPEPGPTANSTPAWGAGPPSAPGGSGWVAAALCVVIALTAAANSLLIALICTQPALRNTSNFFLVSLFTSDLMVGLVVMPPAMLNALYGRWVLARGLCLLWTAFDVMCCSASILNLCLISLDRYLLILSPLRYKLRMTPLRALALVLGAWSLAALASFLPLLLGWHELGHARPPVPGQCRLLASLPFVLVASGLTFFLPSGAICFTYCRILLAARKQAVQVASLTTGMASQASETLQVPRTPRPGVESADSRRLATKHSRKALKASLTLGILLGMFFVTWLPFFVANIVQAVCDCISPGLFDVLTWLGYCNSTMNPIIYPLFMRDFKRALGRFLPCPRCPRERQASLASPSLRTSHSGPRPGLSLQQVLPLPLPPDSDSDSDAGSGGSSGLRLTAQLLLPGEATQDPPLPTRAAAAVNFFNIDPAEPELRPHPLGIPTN

SMILES	residual activity [1] [%]	residual activity [2] [%]	residual activity [3] [%]	residual activity [4] [%]	residual activity [5] [%]	residual activity [6] [%]	residual activity [7] [%]	residual activity [8] [%]	inhibition [9] [%]	residual activity [10] [%]	residual activity [11] [%]	residual activity [12] [%]	residual activity [13] [%]	inhibition [14] [%]	residual activity [15] [%]	residual activity [16] [%]	residual activity [17] [%]	residual activity [18] [%]	residual activity [19] [%]	residual activity [20] [%]	other results
CC(=O)N1CCC(c2ccc(C(=O)NC3=NCCN3)cc2C(F)(F)F)CC1 [BI 0054]	100	100	100	100	88	100	100	88	0.267	100	100	100	100	3.32	94	100	100	100	100	86	residual activity [21]: 100%; residual activity [22]: 100%; residual activity [23]: 100%; residual activity [24]: 100%; residual activity [25]: 100%; residual activity [26]: 87%; residual activity [27]: 100%; residual activity [28]: 100%; residual activity [29]: 55%; residual activity [30]: 78%; inhibition [31]: -4.49%; residual activity [32]: 97%; residual activity [33]: 100%; IC50 [34]: > 10 µM (not active); residual activity [35]: 100%; residual activity [36]: 93%; residual activity [37]: 100%; residual activity [38]: 100%; residual activity [39]: 100%
CC(=O)N1CCC(c2ccc(C(=O)NC(=N)N)cc2C(F)(F)F)CC1 [BI 9627]	100	100	100	100	94	95	100	84	1.25	100	98	100	100	16.3	100	100	100	96	100	95	residual activity [21]: 100%; residual activity [22]: 96%; residual activity [23]: 100%; residual activity [24]: 100%; residual activity [25]: 100%; residual activity [26]: 100%; residual activity [27]: 100%; residual activity [28]: 100%; residual activity [29]: 77%; residual activity [30]: 82%; inhibition [31]: -6.68%; residual activity [32]: 100%; residual activity [33]: 100%; IC50 [34]: 0.231 µM (not active); residual activity [35]: 100%; residual activity [36]: 86%; residual activity [37]: 100%; residual activity [38]: 96%; residual activity [39]: 100%
